Experimental data: patent publication US12350250B2, “Aggrelytes for treating ocular conditions” (The Regents of the University of Colorado, a Body Corporate, priority 2022, dated 2025)

Assays:
[1] = tested on: human lenses; experiment: Water-soluble (WS) protein content of aggrelyte-treated human lenses; conditions: 1 mM, 72 h
Procedure: Water soluble (WS) proteins were obtained from both mouse and human lenses. For mouse lenses, WS protein was obtained by homogenizing each mouse lens in 0.2 mL of PBS, followed by centrifugation at 20,000×g for 20 min at 4° C. […] The remaining nucleus was homogenized in 1 mL phosphate buffer. Both cortical and nuclear protein extracts were centrifuged at 20,000×g for 20 min at 4° C. to obtain the soluble protein in the supernatant. In another set of experiments, human lenses (42-64 years), following incubation with aggrelytes as described in the foregoing examples, were each homogenized with 1.5 mL 50 mM phosphate buffer, pH 7.4. The homogenate was centrifuged at 20,000×g for 20 min to obtain a supernatant. Protein in the supernatant was evaluated to determine the effect of aggrelyte treatment on the soluble protein content in the lens.

[2] = tested on: protein thiols of solubilized human lens WI protein; experiment: Protein thiol content in solubilized protein from WI protein of aged lenses; assay type: biochemical; conditions: 500 μM aggrelyte, lenses 58 to 69 years old; for thiol content: 10 μg protein, GSH standard
Procedure: Protein thiol content in the solubilized protein from WI protein from aged lenses (58 to 69 years old) was evaluated. Immediately after treatment with aggrelytes as described in the foregoing examples, 0.15 mL samples were filtered through 10 kDa cutoff centrifugal filters at 4° C. Centrifugal filtration was repeated twice by adding 0.4 mL of 50 mM N2-bubbled sodium phosphate buffer to the retentate each time. Ten micrograms of protein from the final retentate was used for thiol content estimation using a Thiol Quantification Assay Kit (Abcam, Cambridge, MA) using reduced GSH as the standard.

[3] = tested on: mouse lenses; experiment: AcK-bearing proteins in WS fraction of treated mouse lenses (Western blot); conditions: 1 mM, 24 hours, vs untreated controls (p<0.01) and Aggrelyte-2C (p<0.001)
Procedure: Mouse and human lenses were treated with aggrelytes as described in Example 10. Water-soluble proteins from mouse and human lenses were obtained as described in Example 13. Effects of aggrelyte treatment on AcK-bearing proteins in the WS fractions were evaluated by Western blot analysis as described in Example 5. For Western blotting, 10-20 μg of protein from each lens sample was used and each sample was separately processed three times and analyzed.

[4] = biological target: T1, αA-crystallin (αAC) (Homo sapiens, UniProt P02489); experiment: Relative protein acetylation capability on recombinant αAC; assay type: biochemical; conditions: 500 μM acetylating agent, αAC 3 mg/mL, 24 hours, 37° C.
T1 sequence (P02489 1-173): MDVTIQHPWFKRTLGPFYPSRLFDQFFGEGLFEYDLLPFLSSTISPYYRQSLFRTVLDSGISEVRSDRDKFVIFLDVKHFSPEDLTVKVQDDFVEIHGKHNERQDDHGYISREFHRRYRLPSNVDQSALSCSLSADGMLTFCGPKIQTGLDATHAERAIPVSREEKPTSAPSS
Procedure: The relative ability of Aggrelyte-2 to acetylate lysine residues in proteins was investigated using αA-crystallin (αAC). Human recombinant αAC (3 mg/mL PBS) was incubated in 50 mM sodium phosphate buffer, pH 7.4, for 24 hours at 37° C. while shaking without or with 500 μM acetylating agent (Aggrelyte-2, acetyl-CoA, acetic anhydride, or aspirin), dialyzed against PBS for 24 hours at 4° C.

[5] = tested on: αA-crystallin (αAC); experiment: Crystallin levels in solubilized human lens proteins (Western blot), αAC; assay type: biochemical; conditions: 500 μM, solubilized proteins of three human lenses
Procedure: (§1) The contents of crystalline proteins [αA-crystallin (αAC), αB-crystallin (αBC), β-crystallin (βC), and γ-crystallin (γC)] in the solubilized proteins of three human lenses treated with either Aggrelyte-2 or Aggrelyte-2C (500 μM) from Example 4 were determined by Western blot analysis as described for Example 5. Membranes were incubated with antibodies against αAC (1:14,000 dilution; Enzo Life Sciences, Catalog #ADI-SPA-221D), αBC (1:700,000 dilution; University of Iowa), βC (1:14,000 dilution; Santa Cruz Biotechnology, Catalog #sc-22745), and γC (1:7,000 dilution; Santa Cruz Biotechnology, Catalog #sc-22746). The secondary antibodies were HRP-conjugated anti-mouse IgG for αBC and HRP-conjugated […] (Cell Signaling Technology, Catalog #7074S) for αAC, βC, and γC. According to the supplier, the […] detects mostly βB1-crystallin and, to a lesser extent, βA1/3, βA2, βA4, βB2, and βB3-crystallin. The γC antibody reacts with γA, γB, γC, γD, γE, and γF-crystallin.

[6] = tested on: γ-crystallin (γC); experiment: Crystallin levels in solubilized human lens proteins (Western blot), γC; assay type: biochemical; conditions: 500 μM, solubilized proteins of three human lenses
Procedure: as §1

[7] = tested on: human lenses; experiment: Stiffness and axial strain of ex vivo human lenses (Example 10); conditions: 1 mM, 72 h; for lens stiffness (displacement) vs untreated controls: human lenses (42-68 years), loads of 500 mg and 1000 mg; for axial strain vs controls: human lenses, 500 mg and 1000 mg loads
Procedure: In this example, the lenses were dissected from the eyes of mice (C57BL/6J, 5-8 months old, Jackson Laboratories, Stock No. 000664, n=4-5) by a posterior approach and incubated without (“Control”) or with Aggrelyte-2 or Aggrelyte-2C (1 mM) for 24 hours in serum-free and phenol-red-free MEM (297 mOsm) at 37° C. Lens stiffness was measured as previously described in Baradia, H. et al., (2010) Exp. Eye Res. 91, 300-307. Briefly, the lens was placed on a flat platform with the anterior side facing up, and a load was applied to the top of the lens at 100 mg increments for mouse lenses and at 250 mg increments for human lenses. The displacement in the lens axial diameter (in μm or mm) was measured using MATLAB software developed by Dr. Adrian Glasser, UK, and plotted against the load applied. The displacement at a specific load was used to determine differences in lens stiffness between the untreated control and aggrelyte-treated lenses.
Freshly obtained human lenses (42-68 years old, n=10-12) were incubated with or without Aggrelyte-2 or Aggrelyte-2C (1 mM) for a total of 72 h in phenol red-free MEM with a change in media containing freshly dissolved aggrelytes every 24 h. One lens from each donor pair was used as the control, and the other was treated with aggrelyte. After incubation, the lens stiffness was measured as described above. Axial strain was also calculated based on the following formula: […]

[8] = Stability of aggrelytes under physiological conditions (1H-NMR); assay type: physicochemical; conditions: 50 mM phosphate buffer, pH 7.4, 37° C.; for degraded during 3-day incubation: 3 days; for degraded during 7-day incubation: 7 days
Procedure: Aggrelyte-2 (N,S-diacetyl-L-cysteine methyl ester; Astatech Catalog #D95910) and Aggrelyte-2C (N-acetyl cysteine methyl ester; Sigma Aldrich Catalog #01042) (2 mg each) were incubated in 1 mL of 50 mM phosphate buffer, pH 7.4, at 37° C. Aliquots were withdrawn immediately after incubation (Day 0) and after 1, 3, and 7 days. Stability of the aggrelytes was tested using ^1H-NMR (in DMSO-d6) spectroscopy. The NMR peak integration values for the S-acetyl or N-acetyl cysteine methyl proton were compared with the cysteine methine proton.

SMILES | WS content, % higher than in the untreated controls (contralateral lenses) [1] [%] | thiol content [2] [µM] | thiol content, fold higher than in the untreated controls [2] [fold] | AcK modifications in WS proteins (Western blot) [3] | rank order of acetylating agents [4] | levels of αAC, fold higher than in the Aggrelyte-2C-treated samples [5] [fold] | levels of γC vs Controls [6] | lens stiffness (displacement) vs untreated controls [7] | axial strain vs controls [7] | degraded during 3-day incubation [8] [%] | degraded during 7-day incubation [8] [%] | thiol content, fold increase over Aggrelyte-2-treated samples [2] [fold]
COC(=O)[C@H](CSC(C)=O)NC(C)=O [Aggrelyte-2, N,S-diacetyl-L-cysteine methyl ester] | 13.2 | 0.3 to 0.7 | 1.9 | significantly higher AcK modifications | followed by Aggrelyte-2, aspirin, and acetyl-CoA | 1.3 | slightly but not significantly higher | significantly (p<0.01) reduced lens stiffness | significantly (p<0.01) reduced the axial strain | 30 | 42 | –
COC(=O)[C@H](CS)NC(C)=O [Aggrelyte-2C, N-acetyl-L-cysteine methyl ester] | 4.6 | 1.1 to 1.6 | 4.9 | – | – | – | no effect | did not demonstrate significant effects on displacement | did not have a significant effect | 21 | 37 | 2.6
